The record followed here is ChEMBL document CHEMBL1121980, “beta-adrenergic blocking agents. 24. Heterocyclic substituted 1-(aryloxy)-3-[[(amido)alkyl]amino]propan-2-ols” (1982).

What all share (assay type): functional
Assay [1] concerns Felis catus. Nature of the assay: In vivo beta adrenoceptor blocking potency was determined by inhibition of tachycardia in cat.
For assay [2], the species on record is Felis catus. Nature of the assay: The compound was evaluated for inhibition of depressor response. Details: concentration or dose not given beside the values.
The species named for assay [3] is Felis catus. Nature of the assay: The compound was evaluated for inhibition of depressor response.

In general, ED50 refers to the midpoint of the dose-response relation. For orientation: Inhibition means the change of the read-out against control, counted positive when it falls.

For `N#Cc1ccccc1OCC(O)CNCCNC(=O)Cc1cc2ccccc2[nH]1` (configuration not stated), it took a dose of 0.049 mg/kg to reach the 50% effect level with Felis catus [1] (ED50). The same molecule returned an Inhibition in the assay filed under Felis catus [2] of 6%. The matching figures for `N#Cc1ccccc1OCC(O)CNCCNC(=O)c1ccco1` (configuration not stated): 0.272 mg/kg and 28%. Molecule `O=C(NCCNCC(O)COc1cccc2c1OCCO2)c1cccs1` (configuration not stated) registered an Inhibition in the assay listed under Felis catus [2] of 40%. The molecule `N#Cc1ccccc1OCC(O)CNCCNC(=O)Cc1csc(-c2ccc(Cl)cc2)n1` (configuration not stated) gave an ED50 in the assay on Felis catus [1] of 0.087 mg/kg. In the assay listed under Felis catus [2], this molecule displayed an Inhibition of 0%. The matching figures for `O=C(NCCNCC(O)COc1cccc2c1OCCO2)Nc1ccccc1` (configuration not stated): 0.111 mg/kg and 0%. `NC(=O)c1ccccc1OCC(O)CNCCNC(=O)c1cccs1` (configuration not stated) showed an ED50 in the assay with Felis catus [1] of 0.461 mg/kg. The molecule also gave an Inhibition in the assay filed under Felis catus [2] of 0%.

In turn, `O=C(NCCNCC(O)COc1ccccc1)c1cccs1` (configuration not stated) had an ED50 in the assay with Felis catus [1] of 0.104 mg/kg. The molecule also displayed an Inhibition in the assay listed under Felis catus [2] of 28%.

Consider `CC(=O)Nc1ccc(OCC(O)CNC(C)C)cc1` (configuration not stated) [PRACTOLOL], for which the ED50 in the assay on Felis catus [1] was 0.167 mg/kg. The Inhibition in the assay filed under Felis catus [3] stood at 8%.

As for `CC(C)NCC(O)COc1cccc2ccccc12` (configuration not stated) [PROPRANOLOL], in the assay with Felis catus [1], the ED50 was 0.062 mg/kg. Moreover, the Inhibition in the assay filed under Felis catus [2] is recorded as 85%.
